Reference: US11911393B2, “Non-catalytic substrate-selective p38alpha-specific MAPK inhibitors with endothelial-stabilizing and anti-inflammatory activity, and methods of use thereof” (University of Maryland, Baltimore, priority 2016, dated 2024)

System: TNFα-induced gene expression in HMVECLs
Assay: RNASeq of TNFα-induced gene expression
Type: cell-based, human
Settings: 100 μM UM101, 10 μM SB203580

C[S+]([O-])c1ccc(-c2nc(-c3ccncc3)c(-c3ccc(F)cc3)[nH]2)cc1 (centres unmarked) [SB203580, reference compound]
bin (gene expression response pattern): MAP2K6 (HMVECLs, TNFα): 1
bin (gene expression response pattern): MMP9 (HMVECLs, TNFα): 3
bin (gene expression response pattern): MUC4 (HMVECLs, TNFα): 3
bin (gene expression response pattern): NEURL3 (HMVECLs, TNFα): 5
bin (gene expression response pattern): NIPAL4 (HMVECLs, TNFα): 5
bin (gene expression response pattern): NOG (HMVECLs, TNFα): 5
bin (gene expression response pattern): NUAK1 (HMVECLs, TNFα): 5
bin (gene expression response pattern): NUAK2 (HMVECLs, TNFα): 5
bin (gene expression response pattern): OR2I1P (HMVECLs, TNFα): 3
bin (gene expression response pattern): PALMD (HMVECLs, TNFα): 5
bin (gene expression response pattern): PCDH17 (HMVECLs, TNFα): 5
bin (gene expression response pattern): PCLO (HMVECLs, TNFα): 5
bin (gene expression response pattern): PDE7B (HMVECLs, TNFα): 5
bin (gene expression response pattern): PDK4 (HMVECLs, TNFα): 5
bin (gene expression response pattern): PGF (HMVECLs, TNFα): 5
bin (gene expression response pattern): PLA1A (HMVECLs, TNFα): 3
bin (gene expression response pattern): PRICKLE1 (HMVECLs, TNFα): 5
bin (gene expression response pattern): PRKCH (HMVECLs, TNFα): 5
bin (gene expression response pattern): PRRG4 (HMVECLs, TNFα): 3
bin (gene expression response pattern): PTGER4P2 (HMVECLs, TNFα): 5
bin (gene expression response pattern): RASSF9 (HMVECLs, TNFα): 5
bin (gene expression response pattern): RGCC (HMVECLs, TNFα): 5
bin (gene expression response pattern): RIMS1 (HMVECLs, TNFα): 5
bin (gene expression response pattern): RN7SL471P (HMVECLs, TNFα): 5
bin (gene expression response pattern): RNF152 (HMVECLs, TNFα): 5
bin (gene expression response pattern): RP11-197M22.2 (HMVECLs, TNFα): 5
bin (gene expression response pattern): RP11-244F12.3 (HMVECLs, TNFα): 5
bin (gene expression response pattern): RP11-284F21.7 (HMVECLs, TNFα): 1
bin (gene expression response pattern): RP11-309L24.2 (HMVECLs, TNFα): 5
bin (gene expression response pattern): RP11-490B18.5 (HMVECLs, TNFα): 3
bin (gene expression response pattern): RP11-758N13.1 (HMVECLs, TNFα): 5
bin (gene expression response pattern): RPA4 (HMVECLs, TNFα): 5
bin (gene expression response pattern): SEMA6D (HMVECLs, TNFα): 1
bin (gene expression response pattern): SERTAD4 (HMVECLs, TNFα): 5
bin (gene expression response pattern): SGK223 (HMVECLs, TNFα): 5
bin (gene expression response pattern): SH3RF2 (HMVECLs, TNFα): 5
bin (gene expression response pattern): SH3TC2 (HMVECLs, TNFα): 5
bin (gene expression response pattern): SLC15A3 (HMVECLs, TNFα): 3
bin (gene expression response pattern): SLC16A6 (HMVECLs, TNFα): 5
bin (gene expression response pattern): SLC45A3 (HMVECLs, TNFα): 5
bin (gene expression response pattern): SLCO4A1 (HMVECLs, TNFα): 5
bin (gene expression response pattern): SMAD6 (HMVECLs, TNFα): 5
bin (gene expression response pattern): SNORD12B (HMVECLs, TNFα): 3
bin (gene expression response pattern): SOX18 (HMVECLs, TNFα): 5
bin (gene expression response pattern): SSTR1 (HMVECLs, TNFα): 5
bin (gene expression response pattern): TCHH (HMVECLs, TNFα): 3
bin (gene expression response pattern): TGFA (HMVECLs, TNFα): 5
bin (gene expression response pattern): TLR7 (HMVECLs, TNFα): 2
bin (gene expression response pattern): TRIL (HMVECLs, TNFα): 1
bin (gene expression response pattern): TRPC6 (HMVECLs, TNFα): 5
bin (gene expression response pattern): TSLP (HMVECLs, TNFα): 3
bin (gene expression response pattern): UNC5B-AS1 (HMVECLs, TNFα): 5
bin (gene expression response pattern): VAV3 (HMVECLs, TNFα): 5
bin (gene expression response pattern): VDR (HMVECLs, TNFα): 3
bin (gene expression response pattern): Y_RNA (HMVECLs, TNFα): 3
bin (gene expression response pattern): ZNF365 (HMVECLs, TNFα): 5
bin (gene expression response pattern): ZNF467 (HMVECLs, TNFα): 5
bin (gene expression response pattern): ZNF521 (HMVECLs, TNFα): 5
bin (gene expression response pattern) (HPCA (ENSG00000121905)): 8
bin (gene expression response pattern) (IFIH1 (ENSG00000115267)): 7
bin (gene expression response pattern) (IL1A (ENSG00000115008)): 8
bin (gene expression response pattern) (IL3RA (ENSG00000185291)): 7
bin (gene expression response pattern) (IL12RB1 (ENSG00000096996)): 8
bin (gene expression response pattern) (IRF8 (ENSG00000140968)): 7
bin (gene expression response pattern) (KYNU (ENSG00000115919)): 7
bin (gene expression response pattern) (LINC00092 (ENSG00000225194)): 7
bin (gene expression response pattern) (LST1 (ENSG00000204482)): 7
bin (gene expression response pattern) (LYPD6 (ENSG00000187123)): 7
bin (gene expression response pattern) (MIR126 (ENSG00000199161)): 7
bin (gene expression response pattern) (MOB3C (ENSG00000142961)): 7
bin (gene expression response pattern) (MRGPRX4 (ENSG00000179817)): 7
bin (gene expression response pattern) (NKD2 (ENSG00000145506)): 8
bin (gene expression response pattern) (NKX3-1 (ENSG00000167034)): 8
bin (gene expression response pattern) (OLR1 (ENSG00000173391)): 8
bin (gene expression response pattern) (P2RX2 (ENSG00000187848)): 8
bin (gene expression response pattern) (PARP14 (ENSG00000173193)): 7
bin (gene expression response pattern) (PEXHG (ENSG00000104883)): 7
bin (gene expression response pattern) (PRRT2 (ENSG00000167371)): 7
bin (gene expression response pattern) (RCAN1 (ENSG00000159200)): 7
bin (gene expression response pattern) (RND1 (ENSG00000172602)): 8
bin (gene expression response pattern) (RP3-416H24.1 (ENSG00000257671)): 8
bin (gene expression response pattern) (RP4-607I7.1 (ENSG00000255521)): 7
bin (gene expression response pattern) (RP4-681N20.5 (ENSG00000275582)): 8
bin (gene expression response pattern) (RP4-734G22.3 (ENSG00000272078)): 7
bin (gene expression response pattern) (RP11-79H23.3 (ENSG00000261618)): 7
bin (gene expression response pattern) (RP11-158I3.3 (ENSG00000269826)): 8
bin (gene expression response pattern) (RP11-283G6.5 (ENSG00000255750)): 7
bin (gene expression response pattern) (RP11-342K2.1 (ENSG00000279133)): 8
bin (gene expression response pattern) (RP11-638I2.9 (ENSG00000258521)): 8
bin (gene expression response pattern) (RP11-875011.2 (ENSG00000246130)): 7
bin (gene expression response pattern) (SCUBE2 (ENSG00000175356)): 7
bin (gene expression response pattern) (SFMBT2 (ENSG00000198879)): 7
bin (gene expression response pattern) (SLC19A3 (ENSG00000135917)): 7
bin (gene expression response pattern) (SLC26A9 (ENSG00000174502)): 8
bin (gene expression response pattern) (SLC52A3 (ENSG00000101276)): 7
bin (gene expression response pattern) (TMEM52B (ENSG00000165685)): 8
bin (gene expression response pattern) (TNF (ENSG00000232810)): 8
bin (gene expression response pattern) (TNIP3 (ENSG00000050730)): 7
bin (gene expression response pattern) (TOX (ENSG00000198846)): 8
bin (gene expression response pattern) (TP63 (ENSG00000073282)): 8
bin (gene expression response pattern) (VCAM1 (ENSG00000162692)): 7
